Measurements as given in patent US8093226B2, “Cytostatic 7-deazapurine nucleosides” (Institute of Organic Chemistry and Biochemistry of the …, priority 2008, dated 2012).

Assays:
Type in all cases: cell-based
HCT116 = assay: Test A: Cytostatic Cell Culture Assay (GI50), HCT116; conditions: Homo sapiens, HCT-116, 120 h; HCT116 cells, 5 days, SRB; read-out: G150 Colon HCT116
Source text: (§1) Test A: Cytostatic Cell Culture Assay (GI50)
(§2) This assay is based on quantification of cell counts by a calorimetric detection of the cell associated proteins. The assay relies on the ability of sulforhodamine B (SRB) to bind to protein components of cells that have been fixed to tissue-culture plates by trichloroacetic acid (TCA). SRB is a bright-pink aminoxanthene dye with two sulfonic groups that bind to basic amino-acid residues under mild acidic conditions, and dissociate under basic conditions. As the binding of SRB is stoichiometric, the amount of dye extracted from stained cells is directly proportional to the cell mass.
(§3) Cell lines: All cell lines are obtained from ATCC (Manassas, Va.). Cultivation media containing Glutanax, and trypsin are purchased from Invitrogen (Carlsbad, Calif.). Doxorubicin, Clofarabine, TCA and SRB are from Sigma-Aldrich (St. Louis, Mo.). Gemcitabine is obtained from Moravek Biochemicals (Brea, Calif.)
(§4) • 1. Trypsinize the sub-confluent cells, count them, and adjust the cell concentrations according to the cell counts listed in Table 1. • 2. Distribute the cells into the 96-well plates in 150 μL of media. Incubate the plates overnight in humidified CO2 incubator at 37° C. • 3. Fix one plate of each cell line with TCA. Discard the cultivation media from the plates by flicking them gently and add 100 μL cold 10% (vol/vol) TCA to each well. Incubate the plates at 4 degree refrigerator for 1 hour. Discard TCA from the plates by flicking them gently. Rinse plates four times in a washing basin containing tap water. Store the plates at room temperature. These plates represent cell counts on day zero. • 4. Prepare a set of medium solutions containing various concentrations of tested compounds by making 5-fold serial dilutions in 96-well plate. Add 50 μL of the diluted compounds per well. Include controls with untreated cells and cells treated with doxorubicin, clofarabine and gemcitabine. • 5. Incubate the plates for 5 days at 37° C. • 6. Fix the plates with TCA. Discard the cultivation media from the plates by flicking them gently and add 100 μL cold 10% (vol/vol) TCA to each well. Incubate the plates at 4 degree refrigerator for 1 hour. Discard TCA from the plates by flicking them gently. Rinse plates four times in a washing basin containing tap water. • 7. Remove excess water by tapping the plates face down, gently on a paper towel. Allow the plates to air-dry at room temperature. • 8. Add 100 μL of 0.057% SRB solution in 1% (vol/vol) acetic acid to each well of the plates fixed with TCA on day zero and five. Leave at room temperature for 30 minutes. • 9. Flick the plates gently to discard SRB. Rinse the plates four times with 1% (vol/vol) Acetic Acid. • 10. Store the plates at 370 incubator to facilitate faster drying. • 11. Once the plates are completely dry, add 200 μL of 10 mM Tris base solution (pH 10.5) to each well. Leave at room temperature for 30 minutes for SRB to solubilize. • 12. Measure the OD at 500 nm in a microplate reader. • 13. Calculate the percentage of cell-growth inhibition using the next formula: % of control cell growth=100×(ODsample−mean ODday0)/(ODneg control−mean ODday0)
(§5) For GI50 determination, plot a dose-response curves between the compound concentration and percent of growth inhibition. GI50 values can be derived by fitting dose-response curves using sigmoidal dose response equation.

[1] = test system: Human T-lymphoid cell line CCRF-CEM; assay: Cell cycle distribution in human T-lymphoid cells (propidium iodide, flow cytometry); conditions: 72 hours; for Relative change in cell cycle phase compared to untreated control, G1 / Relative change in cell cycle phase compared to untreated control, G2/M / Relative change in cell cycle phase compared to untreated control, S: concentration corresponding to CC50, untreated control = 1
Experimental: Effects of the Compounds on Cell Cycle Distribution in Human T-Lymphoid Cells
Human T-lymphoid cell line CCRF-CEM is treated with tested compounds for 72 hours at the concentration corresponding to the CC50 value of each compound. At the end of incubation, cells are harvested by centrifugation, washed, and fixed in ethanol. Fixed cells are stained with propidium iodide in a buffer containing RNaseA and the cell cycle distribution analysis is performed by flow cytometry using BD FACSAria instrument. Data are processed using BD FACSDiva software v4.1 and presented as a percentage of analyzed cell population in Phase G1, S, and G2/M. Cell cycle distribution is determined in parallel for untreated and treated cells and relative change for each cell cycle phase is calculated.
The data represent changes in the frequency of each cell cycle phase in treated cells relative to untreated control (the relative fraction of each analyzed cell cycle phase in untreated control has the value of 1).
Primary data are shown in Table 3, with values representing the percentage distribution of each cell cycle phase in the total cell population.

Du145 = assay: Test A: Cytostatic Cell Culture Assay (GI50), Du145; conditions: Homo sapiens, DU-145, 120 h; Du145 cells, 5 days, SRB; read-out: G150 Prostate Du145
Source text: as §1, §2, §3, §4, §5

NCIH23 = assay: Test A: Cytostatic Cell Culture Assay (GI50), NCIH23; conditions: Homo sapiens, NCI-H23, 120 h; NCIH23 cells, 5 days, SRB; read-out: G150 Lung NCIH23
Source text: as §1, §2, §3, §4, §5

PC3 = assay: Test A: Cytostatic Cell Culture Assay (GI50), PC3; conditions: Homo sapiens, PC-3, 120 h; PC3 cells, 5 days, SRB; read-out: G150 Prostate PC3
Source text: as §1, §2, §3, §4, §5

A549 = assay: Test A: Cytostatic Cell Culture Assay (GI50), A549; conditions: Homo sapiens, 120 h; A549 cells, 5 days, SRB; read-out: G150 Lung A549
Source text: as §1, §2, §3, §4, §5

HCT15 = assay: Test A: Cytostatic Cell Culture Assay (GI50), HCT15; conditions: Homo sapiens, HCT-15, 120 h; HCT15 cells, 5 days, SRB; read-out: G150 Colon HCT15
Source text: as §1, §2, §3, §4, §5

Hs578 = assay: Test A: Cytostatic Cell Culture Assay (GI50), Hs578; conditions: 120 h; Hs578 cells, 5 days, SRB; read-out: G150 Breast Hs578
Source text: as §1, §2, §3, §4, §5

IC50 (HCT116) [nM]	IC50 (Du145) [nM]	IC50 (PC3) [nM]	IC50 (A549) [nM]	IC50 (HCT15) [nM]	Compound	Relative change in cell cycle phase compared to untreated control, G1 [1]	Relative change in cell cycle phase compared to untreated control, G2/M [1]	Relative change in cell cycle phase compared to untreated control, S [1]	IC50 (NCIH23) [nM]	IC50 (Hs578) [nM]	other results
78	7	91	88	20	OC[C@H]1O[C@@H](n2ccc3c(-c4ccco4)ncnc32)[C@H](O)[C@@H]1O [Example 5, 4-(Furan-2-yl)-7-(β-D-ribofuranosyl)-7H-pyrrolo[2,3-d]pyrimidine]	0.57	1.19	1.38	4200	49	G1 % ([1]; 0.3 μM, replicate 1): 26.14%; G2/M % ([1]; 0.3 μM, replicate 1): 11.89%; S % ([1]; 0.3 μM, replicate 1): 61.98%; G1 % ([1]; 0.3 μM, replicate 2): 23.61%; G2/M % ([1]; 0.3 μM, replicate 2): 16.41%; S % ([1]; 0.3 μM, replicate 2): 59.99%
39	5	75	109	57	OC[C@H]1O[C@@H](n2cc(F)c3c(-c4ccco4)ncnc32)[C@H](O)[C@@H]1O [Example 20, 5-Fluoro-4-(furan-2-yl)-7-(β-D-ribofuranosyl)-7H-pyrrolo[2,3-d]pyrimidine]	0.61	2.00	1.06	4300	175	G1 % ([1]; 1.5 μM, replicate 1): 22.32%; G2/M % ([1]; 1.5 μM, replicate 1): 30.19%; S % ([1]; 1.5 μM, replicate 1): 47.49%; G1 % ([1]; 1.5 μM, replicate 2): 28.81%; G2/M % ([1]; 1.5 μM, replicate 2): 25.24%; S % ([1]; 1.5 μM, replicate 2): 45.95%
1420	138	263	2470	290	OC[C@H]1O[C@@H](n2cc(Cl)c3c(-c4ccccc4)ncnc32)[C@H](O)[C@@H]1O [Example 28, 5-Chloro-4-phenyl-7-(β-D-ribofuranosyl)-7H-pyrrolo[2,3-d]pyrimidine]	–	–	–	5020	13200	–
3690	94	194	2590	224	OC[C@H]1O[C@@H](n2ccc3c(-c4c[nH]cn4)ncnc32)[C@H](O)[C@@H]1O [Example 9, 4-(1H-Imidazol-4-yl)-7-(β-D-ribofuranosyl)-7H-pyrrolo[2,3-d]pyrimidine]	–	–	–	2490	1940	–

The remaining lines, values behind:

Compound	IC50 (HCT116) [nM]	IC50 (Du145) [nM]	IC50 (PC3) [nM]	IC50 (A549) [nM]	IC50 (HCT15) [nM]	Relative change in cell cycle phase compared to untreated control, G1 [1]	Relative change in cell cycle phase compared to untreated control, G2/M [1]	Relative change in cell cycle phase compared to untreated control, S [1]	IC50 (NCIH23) [nM]	IC50 (Hs578) [nM]	other results
OC[C@H]1O[C@@H](n2cc(F)c3c(-c4cccs4)ncnc32)[C@H](O)[C@@H]1O [Example 21]	9	9	83	61	18	0.74	1.38	1.12	4700	132	G1 % ([1]; 0.3 μM, replicate 1): 30.83%; G2/M % ([1]; 0.3 μM, replicate 1): 22.80%; S % ([1]; 0.3 μM, replicate 1): 46.37%; G1 % ([1]; 0.3 μM, replicate 2): 32.73%; G2/M % ([1]; 0.3 μM, replicate 2): 23.53%; S % ([1]; 0.3 μM, replicate 2): 43.74%
OC[C@H]1O[C@@H](n2cc(F)c3c(-c4nccs4)ncnc32)[C@H](O)[C@@H]1O [Example 25, 5-Fluoro-7-(β-D-ribofuranosyl)-4-(thiazol-2-yl)-7H-pyrrolo[2,3-d]pyrimidine]	1260	24	175	902	361	–	–	–	4980	566	–
OC[C@H]1O[C@@H](n2ccc3c(-c4cc[nH]c4)ncnc32)[C@H](O)[C@@H]1O [Example 14, 4-(1H-Pyrrol-3-yl)-7-(β-t-ribofuranosyl)-7H-pyrrolo[2,3-d]pyrimidine]	500	30	384	365	163	–	–	–	2320	442	–
OC[C@H]1O[C@@H](n2cc(F)c3c(-c4ccsc4)ncnc32)[C@H](O)[C@@H]1O [Example 24, 5-Fluoro-7-(β-D-ribofuranosyl)-4-(thiophen-3-yl)-7H-pyrrolo[2,3-d]pyrimidine]	145	66	105	379	179	–	–	–	2950	813	–
OC[C@H]1O[C@@H](n2ccc3c(-c4ccc[nH]4)ncnc32)[C@H](O)[C@@H]1O [Example 7, 4-(1H-Pyrrol-2-yl)-7-(β-D-ribofuranosyl)-7H-pyrrolo[2,3-d]pyrimidine]	> 20000	630	1280	> 20000	2440	–	–	–	2500	1280	–
OC[C@H]1O[C@@H](n2ccc3c(-c4cccs4)ncnc32)[C@H](O)[C@@H]1O [Example 6, 7-(β-D-Ribofuranosyl)-4-(thiophen-2-yl)-7H-pyrrolo[2,3-d]pyrimidine]	49	9	67	45	78	0.52	1.54	1.34	4100	101	G1 % ([1]; 0.3 μM, replicate 1): 30.82%; G2/M % ([1]; 0.3 μM, replicate 1): 14.53%; S % ([1]; 0.3 μM, replicate 1): 54.65%; G1 % ([1]; 0.3 μM, replicate 2): 14.66%; G2/M % ([1]; 0.3 μM, replicate 2): 22.05%; S % ([1]; 0.3 μM, replicate 2): 63.29%
OC[C@H]1O[C@@H](n2cc(Cl)c3c(-c4cccs4)ncnc32)[C@H](O)[C@@H]1O [Example 30, 5-Chloro-7-(β-D-ribofuranosyl)-4-(thiophen-2-yl)-7H-pyrrolo[2,3-d]pyrimidine]	275	13	35	375	81	–	–	–	2020	1640	–
OC[C@H]1O[C@@H](n2ccc3c(-c4ccoc4)ncnc32)[C@H](O)[C@@H]1O [Example 12, 4-(Furan-3-yl)-7-(β-D-ribofuranosyl)-7H-pyrrolo[2,3-d]pyrimidine]	92	36	150	73	86	–	–	–	697	264	–
